Common to all, as to experiment: fluorogenic peptide substrate assay
Holding throughout (assay type): biochemical

The target in one test is T1, MMP-8 (Homo sapiens, UniProt P22894).
T1 construct: gene MMP8
From the text:
fluorogenic peptide substrate assay on MMP-8

A further test addresses T2, MMP-13 (Homo sapiens, UniProt P45452).
T2 construct: gene MMP13
From the text:
fluorogenic peptide substrate assay on MMP-13

For another test, the target named is T3, MMP-9 (Homo sapiens, UniProt P14780).
T3 construct: gene MMP9
T3 sequence (P14780 107-444 limits assumed): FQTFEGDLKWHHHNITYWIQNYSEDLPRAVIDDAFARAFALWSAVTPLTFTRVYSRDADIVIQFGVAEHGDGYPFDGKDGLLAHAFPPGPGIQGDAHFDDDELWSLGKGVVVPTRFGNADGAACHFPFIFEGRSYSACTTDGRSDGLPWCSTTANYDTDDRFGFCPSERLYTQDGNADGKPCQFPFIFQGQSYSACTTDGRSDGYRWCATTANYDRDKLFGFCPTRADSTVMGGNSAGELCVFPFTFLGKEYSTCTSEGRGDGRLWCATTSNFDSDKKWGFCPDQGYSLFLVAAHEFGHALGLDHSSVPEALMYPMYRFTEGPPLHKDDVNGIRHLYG
An excerpt: fluorogenic peptide substrate assay on MMP-9

In a further test the target is T4, MMP-2 (Homo sapiens, UniProt P08253).
T4 construct: gene MMP2
T4 sequence (P08253 110-446 limits assumed): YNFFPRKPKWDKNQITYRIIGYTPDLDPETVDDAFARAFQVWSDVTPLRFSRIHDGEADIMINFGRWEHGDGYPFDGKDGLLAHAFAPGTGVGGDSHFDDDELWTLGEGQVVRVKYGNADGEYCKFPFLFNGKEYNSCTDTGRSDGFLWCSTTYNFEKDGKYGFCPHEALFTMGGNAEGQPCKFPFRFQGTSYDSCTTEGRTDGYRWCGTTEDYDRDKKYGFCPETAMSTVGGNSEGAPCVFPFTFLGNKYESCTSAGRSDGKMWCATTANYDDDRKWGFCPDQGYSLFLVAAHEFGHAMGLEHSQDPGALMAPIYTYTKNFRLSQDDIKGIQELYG
An excerpt:
fluorogenic peptide substrate assay on MMP-2

For 14 compounds, IC50 results are on record in publication PMC7344628, “Bone-Seeking Matrix Metalloproteinase Inhibitors for the Treatment of Skeletal Malignancy” (Pharmaceuticals, 2020).

Where two headings read alike, the source gives them in different places.

T1 sequence (P22894 100-262 limits assumed): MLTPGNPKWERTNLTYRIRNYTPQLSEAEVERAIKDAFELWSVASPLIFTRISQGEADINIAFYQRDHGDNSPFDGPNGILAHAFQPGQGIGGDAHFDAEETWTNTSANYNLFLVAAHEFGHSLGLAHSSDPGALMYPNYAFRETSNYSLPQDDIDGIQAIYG

`O=C(Nc1ccc(S(=O)(=O)NC(P(=O)(O)O)P(=O)(O)O)cc1)c1ccc([N+](=O)[O-])cc1` [compound 11, (4-(4-nitrobenzamido)phenylsulfonylamino)methyl-1,1-bisphosphonic acid]: the IC50 was determined as 0.46 ± 0.11 µM against MMP-8, 0.61 ± 0.16 µM against MMP-13, 0.43 ± 0.1 µM against MMP-9 and 1.7 ± 0.3 µM at MMP-2.

Turning to `O=C(Nc1ccc(S(=O)(=O)NC(P(=O)(O)O)P(=O)(O)O)cc1)c1cccc(Br)c1` [compound 10, (4-(3-bromobenzamido)phenylsulfonylamino)methyl-1,1-bisphosphonic acid], the IC50 against MMP-8 was 17 ± 4 µM; against MMP-13 it was 15.9 ± 1.9 µM; against MMP-9 it was over 100 µM; against MMP-2 it was 4.2 ± 1.3 µM.

Turning to `O=C(Nc1ccc(S(=O)(=O)NC(P(=O)(O)O)P(=O)(O)O)cc1)c1ccc2ccccc2c1` [compound 13, (4-(2-naphthamido)phenylsulfonylamino)methyl-1,1-bisphosphonic acid], the IC50 amounted to 16.6 ± 1.9 µM on MMP-8, 9.3 ± 0.5 µM against MMP-13, 76 ± 8 µM against MMP-9 and 3.9 ± 0.5 µM against MMP-2.

On to `O=C1c2ccccc2C(=O)N1c1ccc(S(=O)(=O)NC(P(=O)(O)O)P(=O)(O)O)cc1` [compound 5, (4-(1,3-dioxoisoindolin-2-yl)phenylsulfonylamino)methyl-1,1-bisphosphonic acid], for which the IC50 at MMP-8 is 45 ± 5 µM; against MMP-13, 18.1 ± 1.5 µM; at MMP-9 it was 15 ± 6 µM; at MMP-2, 5.3 ± 0.4 µM.

For `O=P(O)(O)C(NS(=O)(=O)c1cccc2ccccc12)P(=O)(O)O` [compound 3, (1-naphthylsulfonylamino)methyl-1,1-bisphosphonic acid], the IC50 against MMP-8 turned out to be 31.3 ± 1.2 µM; against MMP-13, 14.6 ± 0.8 µM; on MMP-9, 57 ± 2 µM; against MMP-2 it was 15.2 ± 0.5 µM.

For `O=C(Nc1ccccc1)Nc1ccc(S(=O)(=O)NC(P(=O)(O)O)P(=O)(O)O)cc1` [compound 4, (4-(3-phenylureido)phenylsulfonylamino)methyl-1,1-bisphosphonic acid], the IC50 turned out to be 48 ± 15 µM against MMP-8, 15 ± 6 µM against MMP-13, 13.8 ± 0.6 µM against MMP-9 and 2.8 ± 0.6 µM against MMP-2.

On to `Cc1ccc(C(=O)Nc2ccc(S(=O)(=O)NC(P(=O)(O)O)P(=O)(O)O)cc2)cc1` [compound 8, (4-(4-methylbenzamido)phenylsulfonylamino)methyl-1,1-bisphosphonic acid], for which the IC50 against MMP-8 was 0.78 ± 0.18 µM; against MMP-13 it was 3.3 ± 0.7 µM; against MMP-9, 0.67 ± 0.25 µM; against MMP-2, 0.958 ± 0.018 µM.

With `Nc1ccc(S(=O)(=O)NC(P(=O)(O)O)P(=O)(O)O)cc1` [compound 1, (4-aminophenylsulfonylamino)methyl-1,1-bisphosphonic acid], the IC50 against MMP-8 is 66 ± 8 µM; at MMP-13, 68.9 ± 10.2 µM; at MMP-9 it was over 100 µM; against MMP-2, 19 ± 3 µM.

`O=C(Nc1ccc(S(=O)(=O)NC(P(=O)(O)O)P(=O)(O)O)cc1)c1ccccc1` [compound 6, (4-benzamidophenylsulfonylamino)methyl-1,1-bisphosphonic acid]: the IC50 on MMP-8 was 1.88 ± 0.03 µM; on MMP-13, 2 ± 0.7 µM; against MMP-9 it was 2.3 ± 0.1 µM; at MMP-2 it was 2.75 ± 0.35 µM.

Consider `O=C(Nc1ccc(S(=O)(=O)NC(P(=O)(O)O)P(=O)(O)O)cc1)c1ccc(Br)cc1` [compound 9, (4-(4-bromobenzamido)phenylsulfonylamino)methyl-1,1-bisphosphonic acid], for which the IC50 came to 0.66 ± 0.13 µM on MMP-8, 0.14 ± 0.05 µM against MMP-13, 0.088 ± 0.012 µM against MMP-9 and 0.67 ± 0.16 µM against MMP-2.

With `O=P(O)(O)C(NS(=O)(=O)c1ccc2ccccc2c1)P(=O)(O)O` [compound 2, (2-naphthylsulfonylamino)methyl-1,1-bisphosphonic acid], the IC50 on MMP-8 was 26.8 ± 0.9 µM; at MMP-13 it was 9.6 ± 0.4 µM; against MMP-9, over 100 µM; against MMP-2, 18.7 ± 0.8 µM.

With `O=C(Nc1cccc(S(=O)(=O)NC(P(=O)(O)O)P(=O)(O)O)c1)c1ccccc1` [compound 7, (3-benzamidophenylsulfonylamino)methyl-1,1-bisphosphonic acid], the IC50 worked out at 79 ± 8 µM against MMP-8, 28 ± 4 µM against MMP-13, 50 ± 11 µM against MMP-9 and 9 ± 0.8 µM at MMP-2.

Consider `O=P(O)(O)C(NS(=O)(=O)c1ccc(-c2ccccc2)cc1)P(=O)(O)O` [ML 115], for which the IC50 on MMP-8 was 0.4 ± 0.03 µM; on MMP-13, 0.74 ± 0.06 µM; on MMP-9, over 100 µM; against MMP-2 (OmniMMP 2.5 µM or OmniMMP RED 1 µM, pH 7.5, 1 mM CaCl2, 1 µM ZnCl2, 15 min preincubation, 37 °C), 0.14 ± 0.04 µM.

In the case of `O=C(Nc1ccc(S(=O)(=O)NC(P(=O)(O)O)P(=O)(O)O)cc1)c1cccc2ccccc12` [compound 12, (4-(1-naphthamido)phenylsulfonylamino)methyl-1,1-bisphosphonic acid], the IC50 against MMP-8 is 25 ± 12 µM; against MMP-13, 12 ± 5 µM; at MMP-9 it was 21.5 ± 0.7 µM; on MMP-2 it was 2.7 ± 1 µM.
